Measured values from patent US7951538B2, “Method to determine the risk for side effects of an SSRI treatment in a person” (The Board of Trustees of the Leland Stanford Junior …, priority 2001, dated 2011).

Key:
[1] = system: patients with major depression; experiment: Improvement in mood on the Hamilton Depression Rating Scale over the 8 week treatment period; assay type: in vivo, human; settings: not affected by the 102 T/C polymorphism
Protocol: (§1) All subjects were 65 years of age or older and had been free of 10 major medical problems for at least 3 months. […] Patients were excluded for clinically significant laboratory abnormalities, drug or alcohol abuse, psychosis, recent suicide attempt, and psychiatric conditions other than major depression, or treatment with antidepressant medications within 7 days of commencing the study.
On day 14, doses were increased to 30 mg once daily. […] All patients Were genotype for the 102 T/C polymorphism using the method described above.

[2] = system: patients with major depression; settings: human, in vivo
Description: as §1
Genomic DNA was extracted from EDTA-treated whole blood using the Puregene DNA extraction kit (Gentra Systems). Genotype for the 102 T/C DNA sequence polymorphism in the 5-HT2A receptor gene was determined using the method of Du et al. (Am J Med Genet. 2000 Feb. 7;96(1):56-60). […]
Discontinuations were classified as due to any event, and as due to an adverse event. […] Body weight was determined at baseline and at each subsequent visit. Actual medication taken Was determined by counting the number of tablets remaining at each clinic visit. Dosing compliance was determined by as total number of medication doses taken divided by total number of capsules given. […]

`CN1CCN2c3ncccc3Cc3ccccc3C2C1` (stereo not drawn) [mirtazapine] was tested, and the “improvement in mood (decreased depression), Hamilton Depression Rating Scale” value [1] was “statistically significant improvement”, the “probability of discontinuing treatment due to side effects” value [2] was “no greater probability” and the “severity of side effects” value [2] was “no greater severity”.
